Measured values published in patent publication US6861419B2, “Substituted 1, 4-thiazepine and analogs as activators of caspases and inducers of apoptosis and the use thereof” (Cytovia, Inc., priority 2000, dated 2005).

Key:
ZR-75-1 = assay: Caspase cascade activation (N-(Ac-DEVD)-N'-ethoxycarbonyl-R110 fluorogenic substrate) in ZR-75-1 cells; type: cell-based; settings: human breast cancer cell line ZR-75-1, 24 hours incubation with compound, 3 hour substrate incubation; read-out: Caspase Potency EC50 (nM) ZR-75-1
Experimental: (§1) Human breast cancer cell lines T-47D and ZR-75-1 were grown according to media component mixtures designated by American Type Culture Collection +10% fetal calf sera (FCS) (Life Technologies, Inc.) in a 5% CO2-95% humidity incubator as 37° C. The T-47 and ZR-75-1 cells were maintained at a cell density between 30 and 80% confluency at a cell density of 0.1 to 0.6×10^6 cells/mL. Cells were harvested at 600 xg and resuspended at 0.65×10^6 cells/mL into appropriate media +10% FCS. An aliquot of 45 μL of cells was added to a well of a 96-well microtiter plate containing 5 μL of a 10% DMSO in RPMI-1640 media solution containing 1.6 to 100 μM of test compound (0.16 to 10 μM final).
(§2) An aliquot of 45 μL of cells was added to a well of a 96-well microtiter plate containing 5 μL of a 10% DMSO in RPMI-1640 media solution without test compound as the control sample. The samples were mixed by agitation and then incubated at 37° C. for 24 hours in a 5% CO2-95% humidity incubator. After incubation, the samples were removed from the incubator and 50 μL of a solution w containing […] of N-(Ac-DEVD)-N′-ethoxycarbonyl-R110 (SEQ ID NO:1) fluorogenic substrate (Cytovia, Inc.; WO99/18856), 20% sucrose (Sigma), 20 mM dithiothreitol (DTT) (Sigma), 200 mM NaCl (Sigma), 40 mM Na piperazine-N,N′-bis[2-ethanesulfonic acid] (PIPES) buffer pH 7.2 (Sigma), and 500 μg/mL lysolecithin (Calbiochem) was added. The samples were mixed by agitation and incubated at room temperature. Using a fluorescent plate reader (Model 1420 Wallac Instruments), an initial reading (T=0) was made approximately 1-2 minutes after addition of the substrate solution, employing excitation at 485 nm and emission at 530 nm, to determine the background fluorescence of the control sample. After the 3 hour incubation, the samples were read for fluorescence as above (T=3 hours).
(§3) The Relative Fluorescence Unit (RFU) values were used to calculate the sample readings as follows: RFU(T=3h)−Control RFU(T=0)=Net RFU(T=3h)
(§4) The level of caspase cascade activation was determined by the ratio of the net RFU value for the test compound to that of the control samples. The EC50 (nM) was determined by a sigmoidal dose-response calculation (Prism 2.0, GraphPad Software, Inc.). The compounds of the invention were determined to have caspase cascade activating effects by proceeding as in Example 8.

T-47D = assay: Caspase cascade activation (N-(Ac-DEVD)-N'-ethoxycarbonyl-R110 fluorogenic substrate) in T-47D cells; type: cell-based; settings: T47D; human breast cancer cell line T-47D, 24 hours incubation with compound, 3 hour substrate incubation; read-out: Caspase Potency EC50 (nM) T-47D
Experimental: as §1, §2, §3, §4

EC50 (ZR-75-1) [nM] | EC50 (T-47D) [nM] | SMILES
349 | 557 | Cc1cc(O)c(C2=NCCSC(c3ccc(Cl)c(Cl)c3)C2)c(=O)o1 (stereo not shown) [Compound 79, 3-[7-(3,4-dichloro-phenyl)-2,3,6,7-tetrahydro-[1,4]thiazepin-5-yl]-4-hydroxy-6-methyl-pyran-2-one]
2080 | 3270 | Cc1cc(O)c(C2=NCCSC(c3ccccc3Br)C2)c(=O)o1 (stereo not shown) [Compound 74, 3-[7-(2-bromo-phenyl)-2,3,6,7-tetrahydro-[1,4]thiazepin-5-yl]4-hydroxy-6-methyl-pyran-2-one]
163 | 345 | CSc1ccc(C2CC(c3c(O)cc(C)oc3=O)=NCCS2)cc1 (stereo not shown) [Compound 70, 4-hydroxy-6-methyl-3-[7-(4-methylsulfanyl-phenyl)-2,3,6,7-tetrahydro-[1,4]thiazepin-5-yl]-pyran-2-one]
4210 | 6930 | Cc1ccc(C2CC(c3c(O)cc(C)oc3=O)=Nc3ccccc3S2)cc1 (stereo not shown) [Compound 85, 4-hydroxy-6-methyl-3-(2-p-tolyl-2,3-dihydro-benzo[b][1,4]thiazepin-4-yl)-pyran-2-one]
1950 | 3050 | COc1cccc(C2CC(c3c(O)cc(C)oc3=O)=NCCS2)c1 (stereo not shown) [Compound 72, 4-hydroxy-3-[7-(3-methoxy-phenyl)-2,3,6,7-tetrahydro-[1,4]thiazepin-5-yl]-6-methyl-pyran-2-one]
